Among the data in patent US9657037B2, “Pyrrole compounds with silicon incorporation” (COUNCIL OF SCIENTIFIC AND INDUSTRIAL RESEARCH, priority 2013, dated 2017) are MIC values, retold here.

Converted amounts (≈) assume the structure as drawn.

Broadly, the MIC is the smallest concentration in the dilution series that meets the test's criterion for growth inhibition.

The first assay relates to Mycobacterium tuberculosis H37Rv. Description: Antitubercular activity, growth inhibition by Alamar-Blue / resazurin microtiter assay. In kind it is cell-based. The settings on record: H37RV. In general terms: Alamar Blue is a resazurin reagent that responds to reducing activity.
`CSc1ccc(-c2c(CN3CC[Si](C)(C)CC3)cc(C)n2-c2ccc(F)cc2)cc1` [Compound 10b, 1-((1-(4-fluorophenyl)-5-methyl-2-(4-(methylthio)phenyl)-1H-pyrrol-3-yl)methyl)-4,4-dimethyl-1,4-azasilinane] came in with an MIC of 1.56 µg/mL (≈ 3.56 µM). The same measure, in the same setting: as for `Cc1ccc(-c2cc(CN3CC[Si](C)(C)CC3)c(C)n2-c2ccc(F)cc2)cc1` [Compound 17, 1-((1-(4-fluorophenyl)-2-methyl-5-(p-tolyl)-1H-pyrrol-3-yl)methyl)-4,4-dimethyl-1,4-azasilinane], the figure is 0.04 µg/mL (≈ 0.0984 µM); as for `Cc1c(CN2CC[Si](C)(C)CC2)cc(-c2ccc(Cl)cc2)n1-c1ccc(C(C)C)cc1` [Compound 19, 1-((5-(4-chlorophenyl)-1-(4-isopropylphenyl)-2-methyl-1H-pyrrol-3-yl)methyl)-4,4-dimethyl-1,4-azasilinane], 0.04 µg/mL (≈ 0.0887 µM). Compound `Cc1c(CN2CC[Si](C)(C)CC2)cc(-c2ccc(Cl)cc2)n1-c1ccc(Cl)cc1` [Compound 9, 1-((1,5-bis(4-chlorophenyl)-2-methyl-1H-pyrrol-3-yl)methyl)-4,4-dimethyl-1,4-azasilinane] yielded an MIC of 0.04 µg/mL (≈ 0.0902 µM).

`CCc1ccc(-c2cc(CN3CC[Si](C)(C)CC3)c(C)n2-c2ccc(OC)cc2)cc1` [Compound 16, 1-((5-(4-ethylphenyl)-1-(4-methoxyphenyl)-2-methyl-1H-pyrrol-3-yl)methyl)-4,4-dimethyl-1,4-azasilinane] displayed an MIC of 0.08 µg/mL (≈ 0.185 µM). Consider `CSc1ccc(-c2cc(CN3CC[Si](C)(C)CC3)c(C)n2-c2ccc(F)cc2)cc1` [Compound 10a, 1-((1-(4-fluorophenyl)-2-methyl-5-(4-(methylthio)phenyl)-1H-pyrrol-3-yl)methyl)-4,4-dimethyl-1,4-azasilinane], for which the lowest concentration to inhibit growth (MIC) was 0.08 µg/mL (≈ 0.182 µM). For the compound `CCc1ccc(-n2c(-c3ccc(Cl)cc3)cc(CN3CC[Si](C)(C)CC3)c2C)cc1` [Compound 13, 1-((5-(4-chlorophenyl)-1-(4-ethylphenyl)-2-methyl-1H-pyrrol-3-yl)methyl)-4,4-dimethyl-1,4-azasilinane], the MIC was 0.08 µg/mL (≈ 0.183 µM). Still for that read-out and setting: as for `CSc1ccc(-c2c(CN3CC[Si](C)(C)CC3)cc(C)n2-c2ccc(C(C)C)cc2)cc1` [Compound 12b, 1-((1-(4-isopropylphenyl)-5-methyl-2-(4-(methylthio)phenyl)-1H-pyrrol-3-yl)methyl)-4,4-dimethyl-1,4-azasilinane], the figure is 1.25 µg/mL (≈ 2.7 µM).

`Cc1c(CN2CC[Si](C)(C)CC2)cc(-c2ccc(Cl)cc2)n1-c1ccccc1` [Compound 15, 1-((5-(4-chlorophenyl)-2-methyl-1-phenyl-1H-pyrrol-3-yl)methyl)-4,4-dimethyl-1,4-azasilinane]: inhibition of growth (MIC) required 0.04 µg/mL (≈ 0.0978 µM). Same read-out and setting: in the case of `CCOc1ccc(-c2c(CN3CC[Si](C)(C)CC3)cc(C)n2-c2ccc(OC)cc2)cc1` [Compound 18, 1-((2-(4-ethoxyphenyl)-1-(4-methoxyphenyl)-5-methyl-1H-pyrrol-3-yl)methyl)-4,4-dimethyl-1,4-azasilinane] it was 5 µg/mL (≈ 11.1 µM); in that of `COc1ccc(-c2c(CN3CC[Si](C)(C)CC3)cc(C)n2-c2ccc(F)cc2)cc1` [Compound 14, 1-((1-(4-fluorophenyl)-2-(4-methoxyphenyl)-5-methyl-1H-pyrrol-3-yl)methyl)-4,4-dimethyl-1,4-azasilinane], 3.12 µg/mL (≈ 7.38 µM); in that of `CSc1ccc(-c2cc(CN3CC[Si](C)(C)CC3)c(C)n2-c2ccc(C(C)C)cc2)cc1` [Compound 12a, 1-((1-(4-isopropylphenyl)-2-methyl-5-(4-(methylthio)phenyl)-1H-pyrrol-3-yl)methyl)-4,4-dimethyl-1,4-azasilinane], 0.04 µg/mL (≈ 0.0864 µM). Compound `Cc1c(CN2CC[Si](C)(C)CC2)cc(-c2ccc(C(C)C)cc2)n1-c1ccc(Cl)cc1` [Compound 11a, 1-((1-(4-chlorophenyl)-5-(4-isopropylphenyl)-2-methyl-1H-pyrrol-3-yl)methyl)-4,4-dimethyl-1,4-azasilinane] came in with an MIC of 0.04 µg/mL (≈ 0.0887 µM).

The assay is the same for the next values; noted with them: H37Rv, 7H9-OADC media with 0.5% glycerol and 1 mg ml−1 tryptone, 37° C., 96-well plates, visual readout, read-out: MIC.
In the case of `Cc1c(CN2CCN(C)CC2)cc(-c2ccc(Cl)cc2)n1-c1ccc(Cl)cc1` [BM212, 1,5-diaryl-2-methyl-3-(4-methylpiperazin-1-yl)methyl-pyrrole, reference compound], the MIC was 1.56 µg/mL (≈ 3.76 µM).

Another assay has the same test system.
Assay: not given
As to conditions: according to literature (Biava. M et. al; J. Med. Chem 2008; 51; 3644); cited from earlier work.
For `Cc1c(CN2CCN(C)CC2)cc(-c2ccc(Cl)cc2)n1-c1ccc(Cl)cc1` [BM212, 1,5-diaryl-2-methyl-3-(4-methylpiperazin-1-yl)methyl-pyrrole, reference compound], the MIC was 0.7 µg/mL (≈ 1.69 µM).
